Assay results: patent US20130096302A1, “PYRROLOPYRAZINES AND PYRAZOLOPYRAZINES USEFUL AS INHIBITORS OF PROTEIN KINASES” (priority 2005, published 2013)
pKi: −log10 of the molar value.

Target: T1, full length Aurora-A (AA 1-403) (Homo sapiens, UniProt O14965)
T1 sequence (O14965 1-403): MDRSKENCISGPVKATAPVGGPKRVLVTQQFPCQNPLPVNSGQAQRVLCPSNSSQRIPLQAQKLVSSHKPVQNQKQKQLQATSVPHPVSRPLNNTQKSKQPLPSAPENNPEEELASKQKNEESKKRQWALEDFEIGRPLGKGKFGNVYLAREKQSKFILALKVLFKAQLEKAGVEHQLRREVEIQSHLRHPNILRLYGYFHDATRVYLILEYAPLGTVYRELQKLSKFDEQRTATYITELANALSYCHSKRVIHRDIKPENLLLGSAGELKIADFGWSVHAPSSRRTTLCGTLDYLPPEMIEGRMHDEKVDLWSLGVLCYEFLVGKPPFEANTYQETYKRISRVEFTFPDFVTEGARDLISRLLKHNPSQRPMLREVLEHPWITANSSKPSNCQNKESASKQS
Assay: AuroraA Inhibition Assay (coupled enzyme system)
Assay type: biochemical
Settings: standard coupled enzyme system, 200 μM ATP, 800 μM peptide (LRRASLG), 35 nM Aurora-A, 30° C.
Method: Compounds were screened for their ability to inhibit full length Aurora-A (AA 1-403) activity using a standard coupled enzyme system (Fox et al., Protein Sci., 7, pp. 2249 (1998)). Reactions were carried out in a solution containing 100 mM HEPES (pH 7.5), 10 mM MgCl2, 25 mM NaCl, 300 μM NADH, 1 mM DTT and 3% DMSO. Final substrate concentrations in the assay were 200 μM ATP (Sigma Chemicals, St Louis, Mo.) and 800 μM peptide (LRRASLG, American Peptide, Sunnyvale, Calif.). Reactions were carried out at 30° C. and 35 nM Aurora-A. Final concentrations of the components of the coupled enzyme system were 2.5 mM phosphoenolpyruvate, 200 μM NADH, 60 μg/ml pyruvate kinase and 20 μg/ml lactate dehydrogenase.
An assay stock buffer solution was prepared containing all of the reagents listed above with the exception of ATP and the test compound of interest. The assay stock buffer solution (60 μl) was incubated in a 96 well plate with 2 μl of the test compound of interest at final concentrations spanning 0.002 μM to 30 μM at 30° C. for 10 min. […] Rates of reaction were obtained using a Molecular Devices Spectramax plate reader (Sunnyvale, Calif.) over 10 min at 30° C. The Ki values were determined from the rate data as a function of inhibitor concentration using computerized nonlinear regression (Prism 3.0, Graphpad Software, San Diego, Calif.).

SMILES | pKi
Clc1cnc2[nH]cc(-c3cccc(Br)c3)c2n1 [Compound I-1, 7-(3-Bromo-phenyl)-2-chloro-5H-pyrrolo[2,3-b]pyrazine] | > 6.70
C[C@H](Nc1nc(-c2c[nH]c3ncc(Cl)nc23)ncc1F)c1ccc(F)cc1 [Compound I-28] | > 6.70
